Assay results: paper PMC7216583 (Parasites & Vectors, 2020)
Where a name gives a salt, the structure may show the parent alone.

What follows are compounds tested on Toxoplasma gondii RH-2F tachyzoites (assay: microbe, parasite or virus in culture). Conditions: 72 h, read-out: Parasite inhibition (%) mean.
CNCC(O)c1ccc(O)c(O)c1 (racemic) [DL-Adrenaline] was tested, and the inhibition of growth at 5 µM was 1.5%.
In the case of Cc1cc2c(F)c(Oc3ncnn4cc(OC[C@@H](C)O)c(C)c34)ccc2[nH]1 [Brivanib (BMS-540215)], the inhibition of growth at 5 µM is reported as 49.8%.
For COC(=O)[C@H](c1ccccc1Cl)N1CCc2sccc2C1 [Clopidogrel (Plavix)], the inhibition of growth at 5 µM was -0.4%.
O[C@@H](COc1cccc2ncccc12)CN1CCN([C@@H]2c3ccccc3[C@@H]3[C@H](c4ccccc42)C3(F)F)CC1 [LY335979 (Zosuquidar 3HCl)] showed an inhibition of growth at 5 µM of -7.9%.

Same assay, conditions: 72 h, read-out: Parasite inhibition (%) mean, preliminary screen of compound library, mean
Nc1nc2c(ncn2COCCO)c(=O)[nH]1 [Acyclovir (Aciclovir)] was tested, and the inhibition of growth at 5 µM was -55.5%.
COc1ccc2[nH]c([S+]([O-])Cc3ncc(C)c(OC)c3C)nc2c1 (stereo not shown) [Esomeprazole sodium (Nexium)] was tested, and the inhibition of growth at 5 µM was 14.2%.
N[C@@H]1CCCCN(c2c(F)cc3c(=O)c(C(=O)O)cn(C4CC4)c3c2Cl)C1 [Besifloxacin HCl (Besivance)] showed an inhibition of growth at 5 µM of 39.1%.
With CCOc1nc2cccc(C(=O)OCc3oc(=O)oc3C)c2n1Cc1ccc(-c2ccccc2-c2nc(=O)o[nH]2)cc1 [Azilsartan Medoxomil (TAK-491)] the inhibition of growth at 5 µM was 35.5%.
Nc1ncnc2c1c(-c1cnc3[nH]ccc3c1)nn2C1CCCC1 [PP-121] showed an inhibition of growth at 5 µM of 36.8%.
COc1ccc(CCC(=O)Nc2nc3ccc(Cl)cc3s2)cc1OC [KY02111] gave an inhibition of growth at 5 µM of -12.8%.
O=S(=O)(O)Oc1ccc(C(c2ccc(OS(=O)(=O)O)cc2)c2ccccn2)cc1 [Sodium Picosulfate] showed an inhibition of growth at 5 µM of 0.3%.
CCNC(=O)CCC/C=C\C[C@@H]1[C@@H](/C=C/[C@@H](O)CCc2ccccc2)[C@H](O)C[C@@H]1O [Bimatoprost] was tested, and the inhibition of growth at 5 µM was 9%.
Cc1onc(-c2ccccc2Cl)c1C(=O)N[C@@H]1C(=O)N2[C@@H](C(=O)O)C(C)(C)S[C@@H]12 [Cloxacillin sodium (Cloxacap)] gave an inhibition of growth at 5 µM of 0.2%.
In the case of Cn1c(=O)cc(N2CCC[C@@H](N)C2)n(Cc2ccccc2C#N)c1=O [Alogliptin (SYR-322)], the inhibition of growth at 5 µM is reported as 44.1%.
For OC[C@@H](O)[C@@H](O)[C@H](O)[C@H](O)CO [D-Mannitol (Osmitrol)], the inhibition of growth at 5 µM was 0.2%.
Work on O=C1Cc2cc(CCN3CCN(c4nsc5ccccc45)CC3)c(Cl)cc2N1 [Ziprasidone hydrochloride] yielded an inhibition of growth at 5 µM of 33.7%.
CO/N=C(\C(=O)N[C@@H]1C(=O)N2C(C(=O)OCOC(=O)C(C)(C)C)=C(/C=C\c3scnc3C)CS[C@H]12)c1csc(N)n1 [Cefditoren pivoxil] gave an inhibition of growth at 5 µM of 0.2%.
Cc1c(C(=O)NN2CCCCC2)nn(-c2ccc(Cl)cc2Cl)c1-c1ccc(Cl)cc1 [Rimonabant (SR141716)] was tested, and the inhibition of growth at 5 µM was 5.1%.
CC(C)OC(=O)C(C(=O)OC(C)C)=C1SC=CS1 [Malotilate] gave an inhibition of growth at 5 µM of 0.5%.
Work on CNC(=O)c1cccc(-c2ccc3c(N4CCOC[C@@H]4C)nc(N4CCOC[C@@H]4C)nc3n2)c1 [AZD2014] yielded an inhibition of growth at 5 µM of 45.5%.
Cc1cc(C#N)cc(C)c1Oc1nc(Nc2ccc(C#N)cc2)nc(N)c1Br [Etravirine (TMC125)] showed an inhibition of growth at 5 µM of 0%.
C[C@@H](O[C@H]1OCCN(Cc2nn(P(=O)(O)O)c(=O)[nH]2)[C@H]1c1ccc(F)cc1)c1cc(C(F)(F)F)cc(C(F)(F)F)c1 [Fosaprepitant dimeglumine] showed an inhibition of growth at 5 µM of -2.8%.
With CC(C)c1onc(-c2c(Cl)cccc2Cl)c1COc1ccc(/C=C/c2cccc(C(=O)O)c2)c(Cl)c1 [GW4064] the inhibition of growth at 5 µM was -7.7%.
In the case of CC[C@H](Nc1ncnc2[nH]cnc12)c1nc2cccc(F)c2c(=O)n1-c1ccccc1 [CAL-101 (GS-1101)], the inhibition of growth at 5 µM is reported as 47.8%.
With COc1ccc(Cl)cc1C(=O)NCCc1ccc(S(=O)(=O)NC(=O)NC2CCCCC2)cc1 [Glyburide (Diabeta)] the inhibition of growth at 5 µM was 1.9%.
With COc1ccc([C@@H]2Sc3ccccc3N(CCN(C)C)C(=O)[C@@H]2OC(C)=O)cc1 [Diltiazem HCl (Tiazac)] the inhibition of growth at 5 µM was -15.8%.
Work on COC(=O)C1=CCCN(C)C1 [Arecoline] yielded an inhibition of growth at 5 µM of -9.5%.
N#CCNC(=O)c1ccc(-c2ccnc(Nc3ccc(N4CCOCC4)cc3)n2)cc1 [Cyt387] showed an inhibition of growth at 5 µM of 28.9%.
Compound CC(=O)OCC(=O)[C@]1(O)CC[C@H]2[C@@H]3CCC4=CC(=O)CC[C@]4(C)[C@@H]3C(=O)C[C@@]21C [Cortisone acetate (Cortone)] has an inhibition of growth at 5 µM of 44.8%.
CCCCCCOC(=O)/N=C(/N)c1ccc(NCc2nc3cc(C(=O)N(CCC(=O)OCC)c4ccccn4)ccc3n2C)cc1 [BIBR-1048 (Dabigatran)] showed an inhibition of growth at 5 µM of 8.4%.
With CN(C)[C@@H](CCOc1cccc2ccccc12)c1ccccc1 [Dapoxetine hydrochloride (Priligy)] the inhibition of growth at 5 µM was -0.2%.
Compound NC(Cc1c[nH]c2ccc(O)cc12)C(=O)O (stereo not shown) [5-hydroxytryptophan (5-HTP)] has an inhibition of growth at 5 µM of 0%.
For Clc1ccc(C(Cn2ccnc2)OCc2ccc(Sc3ccccc3)cc2)c(Cl)c1 (stereo not shown) [Fenticonazole nitrate], the inhibition of growth at 5 µM was 19.8%.
For O=C1c2ccccc2C(=O)C1c1ccccc1 [Phenindione (Rectadione)], the inhibition of growth at 5 µM was -1.7%.
With N[C@@H](CSCCCO)C(=O)O [Fudosteine] the inhibition of growth at 5 µM was 11%.
Compound Cc1cnc(Nc2ccc(OCCN3CCCC3)cc2)nc1Nc1cccc(S(=O)(=O)NC(C)(C)C)c1 [TG101348 (SAR302503)] has an inhibition of growth at 5 µM of 8.5%.
With C=C1[C@H](CO)[C@@H](O)C[C@@H]1n1cnc2c(=O)[nH]c(N)nc21 [Entecavir hydrate] the inhibition of growth at 5 µM was 9.8%.
CN(C)[C@@H]1C(O)=C(C(N)=O)C(=O)[C@@]2(O)C(=O)C3=C(O)c4c(O)cccc4[C@@](C)(O)[C@H]3[C@H](O)[C@@H]12 [Oxytetracycline (Terramycin)] was tested, and the inhibition of growth at 5 µM was 33.5%.
In the case of CC(C)N(CCNC(=O)CN1CCCC1=O)C(C)C [Pramiracetam], the inhibition of growth at 5 µM is reported as 24.1%.
O=S(=O)(c1ccccc1)c1cnc2c(N3CCNCC3)cccc2c1 [SB-742457] gave an inhibition of growth at 5 µM of 0.6%.
Oc1ccc([C@H]2COc3cc(O)ccc3C2)cc1 [Equol] gave an inhibition of growth at 5 µM of -5.6%.
Compound CCCC(=O)[O-].[Na+] [Sodium butyrate] has an inhibition of growth at 5 µM of 23.1%.
CO[C@H]1C(=O)[C@@]2(C)[C@H]([C@@H](OC(=O)c3ccccc3)[C@@]3(O)C[C@H](OC(=O)[C@H](O)[C@@H](NC(=O)OC(C)(C)C)c4ccccc4)C(C)=C1C3(C)C)[C@]1(OC(C)=O)CO[C@@H]1C[C@H]2OC [Cabazitaxel (Jevtana)] showed an inhibition of growth at 5 µM of 2.3%.

Same assay, conditions: 72 h, read-out: Parasite inhibition (%) mean, preliminary screen, mean
CNC(=O)c1cc(Oc2ccc(NC(=O)Nc3ccc(Cl)c(C(F)(F)F)c3)cc2)ccn1 [Sorafenib (Nexavar)] gave an inhibition of growth at 5 µM of 55.5%.
With N#C[C@@H]1C[C@@H]2C[C@H]2N1C(=O)[C@@H](N)C12CC3CC(CC(O)(C3)C1)C2 [Saxagliptin (BMS-477118,Onglyza)] the inhibition of growth at 5 µM was 9.7%.
With CCNC(=O)[C@H]1O[C@@H](n2cnc3c(N)nc(NCCc4ccc(CCC(=O)O)cc4)nc32)[C@@H](O)[C@@H]1O [CGS 21680 HCl] the inhibition of growth at 5 µM was 0.9%.
Nc1ncnc2[nH]cnc12 [Adenine HCl] showed an inhibition of growth at 5 µM of 22.6%.
Work on C=CCn1c(=O)c2cnc(Nc3ccc(N4CCN(C)CC4)cc3)nc2n1-c1cccc(C(C)(C)O)n1 [MK-1775] yielded an inhibition of growth at 5 µM of 0%.
Work on O=C(/C=C/c1cccc(S(=O)(=O)Nc2ccccc2)c1)NO [Belinostat (PXD101)] yielded an inhibition of growth at 5 µM of 65.8%.
With CC1COC2(CCN(c3nc(=O)c4cc(C(F)(F)F)cc([N+](=O)[O-])c4s3)CC2)O1 (racemic) [BTZ043 racemate] the inhibition of growth at 5 µM was -5.8%.
O=C(NC[C@H](O)CO)c1ccncc1Nc1ccc(I)cc1F [AS703026 (pimasertib)] gave an inhibition of growth at 5 µM of -20.8%.
CCN(CC)CC#CCOC(=O)C(O)(c1ccccc1)C1CCCCC1 (stereo not shown) [Oxybutynin (Ditropan)] showed an inhibition of growth at 5 µM of -3.2%.
Compound Cc1cccc(Nc2nc(-c3ccncc3)cs2)c1 [STF-62247] has an inhibition of growth at 5 µM of 15.2%.
With CC(C)(C)C(=O)OCOP(=O)(COCCn1cnc2c(N)ncnc21)OCOC(=O)C(C)(C)C [Adefovir Dipivoxil (Preveon, Hepsera)] the inhibition of growth at 5 µM was 0%.
In the case of O=C(O)c1ccc(Nc2ncc3c(n2)-c2ccc(Cl)cc2C(c2c(F)cccc2F)=NC3)cc1 [MLN8054], the inhibition of growth at 5 µM is reported as 58.4%.
Compound C[C@@H](NCCCc1cccc(C(F)(F)F)c1)c1cccc2ccccc12 [AMG-073 HCl (Cinacalcet HCl)] has an inhibition of growth at 5 µM of -0.4%.
In the case of CCN(C)C(=O)Oc1cccc([C@H](C)N(C)C)c1 [Rivastigmine tartrate (Exelon)], the inhibition of growth at 5 µM is reported as 22.8%.
C[C@@H](Oc1cc(-n2cnc3ccc(CN4CCN(C)CC4)cc32)sc1C(N)=O)c1ccccc1C(F)(F)F [GSK461364] was tested, and the inhibition of growth at 5 µM was 6.6%.
Work on CC[C@H](CO)Nc1nc(NCc2ccccc2)c2ncn(C(C)C)c2n1 [Roscovitine (Seliciclib, CYC202)] yielded an inhibition of growth at 5 µM of 12.2%.
In the case of C[C@]1(c2nc3c(C(N)=O)cccc3[nH]2)CCCN1 [ABT-888 (Veliparib)], the inhibition of growth at 5 µM is reported as 50.5%.
In the case of Nc1nc(N)c2nc(-c3cccc(O)c3)c(-c3cccc(O)c3)nc2n1 [TG100-115], the inhibition of growth at 5 µM is reported as 9.5%.
Work on Cc1ccc2c(=O)c3cccc(CC(=O)O)c3oc2c1C [DMXAA (ASA404)] yielded an inhibition of growth at 5 µM of -33.6%.
C[C@H](Cn1cnc2c(N)ncnc21)OCP(=O)(O)O [Tenofovir (Viread)] showed an inhibition of growth at 5 µM of 0%.
Compound O=C(NOCC1CC1)c1ccc(F)c(F)c1Nc1ccc(I)cc1Cl [CI-1040 (PD184352)] has an inhibition of growth at 5 µM of 0.4%.
With Cc1nc(Nc2ncc(C(=O)Nc3c(C)cccc3Cl)s2)cc(N2CCN(CCO)CC2)n1 [Dasatinib (BMS-354825)] the inhibition of growth at 5 µM was 10.5%.
Compound CCCCCCOC(=O)/N=C(/N)c1ccc(NCc2nc3cc(C(=O)N(CCC(=O)OCC)c4ccccn4)ccc3n2C)cc1 has an inhibition of growth at 5 µM of 1.2%.
CCOC(=O)[C@H](CCc1ccccc1)N[C@@H](C)C(=O)N1Cc2cc(OC)c(OC)cc2C[C@H]1C(=O)O [Moexipril HCl] was tested, and the inhibition of growth at 5 µM was 35.3%.
CCCN1CCO[C@@H]2c3cc(O)ccc3OC[C@@H]21 [PD 128907 HCl] gave an inhibition of growth at 5 µM of 1.8%.
c1cnc2cc3c(cc2n1)C1CNCC3C1 [Varenicline tartrate] showed an inhibition of growth at 5 µM of 0%.
Work on CCN(CCO)CCCOc1ccc2c(Nc3cc(CC(=O)Nc4cccc(F)c4)n[nH]3)ncnc2c1 [Barasertib (AZD1152-HQPA)] yielded an inhibition of growth at 5 µM of 54.4%.
